Assay results reported in article PMC9093066 (Bioorganic & Medicinal Chemistry, 2022).

Columns and labels:
[1] = target: T1, NudF ADP-ribose pyrophosphatase (Escherichia coli, UniProt Q93K97); assay: NudF-mediated counterscreen of ADPr-Glo assay; type: biochemical; conditions: NudF only with free ADP-ribose
T1 sequence (Q93K97 1-209): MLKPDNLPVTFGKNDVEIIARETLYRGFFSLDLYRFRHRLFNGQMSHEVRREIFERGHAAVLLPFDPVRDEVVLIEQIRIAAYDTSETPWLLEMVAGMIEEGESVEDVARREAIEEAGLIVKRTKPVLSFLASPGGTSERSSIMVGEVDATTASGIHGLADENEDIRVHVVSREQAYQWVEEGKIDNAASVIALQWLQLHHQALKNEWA

SARS-CoV-2 Mac1 [2] = target: T2, SARS-CoV-2 Mac1 (Severe acute respiratory syndrome coronavirus 2, UniProt P0DTD1); type: binding; conditions: DSF, 300 µM compound, ± SD of three replicates
SARS-CoV-2 Mac1 [3] = target: T2, SARS-CoV-2 Mac1; type: binding; conditions: for SARS CoV2 Mac1 Alpha (IC50): AlphaScreen ADP-ribose binding, IC50 ± SD of three replicates
[4] = test system: panel of MAR binding proteins from viruses and humans
SARS-CoV-2 Mac1 [5] = target: T2, SARS-CoV-2 Mac1; type: biochemical; conditions: ADPr-Glo dose response, n = 2
Mac1 = conditions: cited from earlier work

## O=C(O)C1CCCN(c2ncnc3[nH]ccc23)C1 (centres unmarked) [Compound 6g, 1-(7H-pyrrolo[2,3–d]pyrimidin-4-yl)piperidine-3-carboxylic acid]
[1]
  activity in NudF-mediated counterscreen: Neither compound demonstrated any activity

## O=C(O)C1CCN(c2ncnc3[nH]ccc23)CC1 [Compound 6h, 1-(7H-pyrrolo[2,3–d]pyrimidin-4-yl)piperidine-4-carboxylic acid]
SARS-CoV-2 Mac1 [2]
  Δ Tm (°C) @300 µM: > 1 °C
SARS-CoV-2 Mac1 [3]; vs fragment 1
  fold improvement of potency over the initial fragment: ~10 fold

## COC(=O)[C@@H]1CN(c2ncnc3[nH]ccc23)CCN1.O=C(O)C(F)(F)F [Compound 10a, Methyl (S)-4-(7H-pyrrolo[2,3–d]pyrimidin-4-yl)piperazine-2-carboxylate ●TFA]
SARS-CoV-2 Mac1 [3]
  SARS CoV2 Mac1 Alpha (IC50): Inactive

## CCOC(=O)[C@H](CC(C)C)Nc1ncnc2[nH]ccc12 [Compound 14b, Ethyl (7H-pyrrolo[2,3–d]pyrimidine-4-yl)-L-leucinate]
SARS-CoV-2 Mac1 [3]
  SARS CoV2 Mac1 Alpha (IC50): completely inactive

## CC(C)C[C@H](Nc1ncnc2[nH]ccc12)C(=O)O [Compound 15b, (7H-pyrrolo[2,3–d]pyrimidine-4-yl)-L-leucinate]
SARS-CoV-2 Mac1 [3]
  SARS CoV2 Mac1 Alpha (IC50): completely inactive

## O=C(O)[C@H](Cc1c[nH]c2ccccc12)Nc1ncnc2[nH]ccc12 [Compound 15c, (7H-pyrrolo[2,3–d]pyrimidin-4-yl)-L-tryptophan]
[4]
  selectivity in panel of ADP-ribose binding proteins: remarkably selective for coronavirus macrodomains
SARS-CoV-2 Mac1 [5]
  inhibition of Mac1 enzyme (ADP-ribosylhydrolase) activity: dose-dependent inhibition
[1]
  activity in NudF-mediated counterscreen: Neither compound demonstrated any activity

## O=C(O)CNc1ncnc2[nH]ccc12 [Compound 15d, (7H-pyrrolo[2,3–d]pyrimidin-4-yl)glycine]
SARS-CoV-2 Mac1 [3]
  SARS CoV2 Mac1 Alpha (IC50): did not demonstrate any inhibitory effect

## O=C(O)[C@@H]1CCC[C@@H]1Nc1ncnc2[nH]ccc12 [Compound 19, (1R, 2S)-2-((7H-pyrrolo[2,3–d]pyrimidin-4-yl)amino)cyclopentane-1-carboxylic acid]
SARS-CoV-2 Mac1 [2]
  Δ Tm (°C) @300 µM: > 1 °C

## c1ccc2c(CCNc3ncnc4[nH]ccc34)c[nH]c2c1 [Compound 20, N-(2-(1H-indol-3-yl)ethyl)-7H-pyrrolo[2,3–d]pyrimidin-4-amine]
SARS-CoV-2 Mac1 [3]
  fold less potent than 15c: approximately 7 fold

## Cc1ccc(C(=O)Nc2ccc(S(=O)(=O)O)c3cc(S(=O)(=O)O)cc(S(=O)(=O)O)c23)cc1NC(=O)c1cccc(NC(=O)Nc2cccc(C(=O)Nc3cc(C(=O)Nc4ccc(S(=O)(=O)O)c5cc(S(=O)(=O)O)cc(S(=O)(=O)O)c45)ccc3C)c2)c1 [Suramin]
Mac1
  stabilization of the protein in DSF assay: concentration dependent stabilization of the protein

## Methyl (R)-4-(7H-pyrrolo[2,3–d]pyrimidin-4-yl)piperazine-2-carboxylate ●TFA [Compound 10b]
SARS-CoV-2 Mac1 [3]
  SARS CoV2 Mac1 Alpha (IC50): Inactive
